Assay results taken from patent publication US12109224B2, “USB1 directed regulation of miRNAs related hematopoietic differentiation and affected in multiple forms of leukemia” (The Regents of the University of Colorado, a body corporate, priority 2020, dated 2024).

Legend:
Format in all cases: cell-based, human
USB1 mutant cells [1] = assay: Colony forming culture (CFC) assay of definitive hematopoietic progenitors; settings: chemical inhibition of PAPD5; RG7834 0.5 μM vs DMSO; FIG. 4E
Experimental: (§1) Hematopoietic differentiation: Definitive hematopoietic differentiation from hESCs was performed as previously described (14). Briefly, hESCs were cultured on Matrigel (BD Bioscience) for 1 day to deplete MEFs. On Day 0, cells were dissociated with 0.05% trypsin (Gibco) for 1 min and incubated with serumfree media [SFD: IMDM supplemented with 25% Hams F12, 0.05% BSA, 1× B27 supplement (Gibco), 0.5× N2 supplement (Gibco), 2 mM L-glutamine (Gibco), 50 μg/ml ascorbic acid (Gibco), 4×10−4 M monothioglycerol (Millipore Sigma), and 150 μg/ml transferrin] supplemented with 10 ng/ml BMP4 on 6 well plates coated with a 5% poly(2-hydroxyethyl methacrylate) solution (Millipore Sigma). On Day 1, one additional volume of SFD was added, containing 10 ng/ml BMP4 and 5 ng/ml bFGF. On Day 2, media was changed to fresh SFD supplemented with 10 ng/ml BMP4, 5 ng/ml bFGF, 3 μM CHIR99021, and 6 μM SB-431542. On Day 3, media was changed to StemPro-34 media [SP-34: StemPro-34 supplemented with 2 mM L-glutamine (Gibco), 1 mM ascorbic acid (Gibco), 4×10−4M monothioglycerol, 150 μg/ml transferrin] supplemented with 15 ng/ml VEGF and 5 ng/ml bFGF. On Day 6, one additional volume of SP-34 supplemented with 15 ng/ml VEGF, 5 ng/ml bFGF, 20 ng/ml IL-6, 50 ng/ml IGF1, 10 ng/ml IL-11, 200 ng/ml SCF, and 4 IU EPO was added. […]

USB1 mutant cells [2] = assay: Flow cytometry following neutrophil differentiation; settings: CD45+CD14-CD11b+CD16 cells; FIG. 4F
Experimental: Flow cytometry and Cell sorting: Flow cytometry analysis was performed using the BD LSR Fortessa and FACS sorting by BD FACS Aria II at the Department of Pathology & Immunology Flow Cytometry Core at Washington University in St. Louis. The antibodies were used as follows; KDR (clone 89106), CD235a-APC (clone HIR2), CD34-APC (clone 8G12), CD34-PE-Cy7 (clone 4H11), CD43-PE or -FITC (clone 1G10), CD73-PE (clone AD2), CD184-APC (clone 12G5), CD45-PE (clone HI30), CD14-PE Cy7 (clone MφP9), CD15-BV421 (W6D3), CD66b-FITC (clone G10F5). All antibodies were purchased from BD Biosciences, but CD15 and CD66b were obtained from BioLegend. For cell cycle analysis, Click-iT EdU Alexa Fluor 488 kit (Life Technologies) was used following manufacturer's instructions.

[3] = system: undifferentiated USB1 mutant cells; assay: 3′ end sequencing of miR-125a-5p in undifferentiated USB1 mutant cells; settings: RG7834 1 μM, FIG. 4B
Experimental: 3′ end library preparation and analysis: 3′ end libraries were prepared as previously described (23, 41). Briefly, 30 ng of DNA-free rRNA-depleted RNA was treated with Antarctic Phosphatase (NEB), and two RNA appendices containing a unique barcode were ligated to equal amount of the input RNA using T4 RNA Ligase I (NEB). Reactions were cleaned up using RNA clean & concentrator kit (Zymo Research) and cDNA was prepared using an RNA appendix-specific primer and Superscript III RT (Invitrogen). cDNA was used as a template for […] using a miRNA-specific reverse primer containing a barcode, a universal primer and Phusion HF DNA polymerase (NEB). RACE products were separated on a 1% Agarose TAE gel, 100-180 bp DNA fragments were excised and DNA was eluted. Illumina-compatible libraries were prepared by amplifying RACE product using Illumina primers, and sequenced on a HiSeq lane (Illumina) using the 2×150 kit. Libraries were demultiplexed and unique reads aligning to the exact miRNA sequence were quantified. miRNA 3′ ends were obtained from miRbase v22.

USB1 mutant cells [4] = assay: miRNA levels by qRT-PCR in USB1 mutant cells; settings: normalized to 5s rRNA; RG7834 (104) vs DMSO; FIG. 4A
[5] = system: USB1 c.531delA CD34+/CD45+ cells; assay: Flow cytometry of hematopoietic CD34+/CD45+ progenitor cells; settings: RG7834 0.5 μM; FIG. 10B
Experimental: as §1

COCCCOc1cc2c(cc1OC)-c1cc(=O)c(C(=O)O)cn1[C@H](C(C)C)C2 [RG7834]
colony-formation potential in USB1 mutants (USB1 mutant cells [1]): rescued
neutrophil formation in USB1 mutant cells (USB1 mutant cells [2]): improved
non-adenylated form of miR-125a-5p [3]: increase
oligoadenylated miR-125a-5p [3]: decrease
levels of miRNAs that were reduced in USB1 mutant cells (USB1 mutant cells [4]): rescued
hematopoietic CD34+/CD45+ progenitor cells [5]: increase
